From publication PMC4057637, “Efficacy of novel antibacterial compounds targeting histidine kinase YycG protein” (Applied Microbiology and Biotechnology, 2014) come the findings set out here.

≈ marks a conversion by molar mass, not a printed value.

For one series, the system named is Clinical MRSE strains. The series is described as follows: MIC, broth dilution. Conditions: Staphylococcus epidermidis; Clinical MRSE strains (n = 5). The series is classed as cell-based, S. epidermidis. As to the method: (§1) Bacterial strains S. epidermidis ATCC 12228 (nonbiofilm forming), S. epidermidis ATCC 35984 (biofilm forming), S. aureus ATCC 49230, and S. aureus ATCC 25923 were from the American Type Culture Collection (ATCC, Manassas, USA) and were cultured in tryptic soy broth medium (TSB; Oxoid Ltd., Basingstoke, England). Ten clinical methicillin-resistant staphylococcal isolates, five MRSA isolates and five MRSE isolates, were collected from Huadong Teaching Hospital in Shanghai. Escherichia coli ATCC 25922 was grown in Luria-Bertani (LB) broth. The six compounds used in this study (H2-38, H2-39, H2-57, H2-60, H2-74, and H2-81) were screened from 56 derivatives of compound 2 in which the functional groups were modified, but the thiazolidine core structure was unchanged. The compounds were synthesized by Nanjing University of Technology. To generate the derivative compounds, halogen atoms were introduced into 4-thiazolidinone compounds that contained carboxylic acid moieties of phenoxy-acetic acid, (5-vinyl-furan-2-yl)-benzoic acid or (5-vinyl-thiophene-2-yl)-benzoic acid. The derivatives were dissolved in dimethyl sulfoxide (DMSO; Amresco, USA) to 200 mM for use as stock solutions.
(§2) MICs of the derivatives for S. epidermidis and S. aureus were determined by the broth dilution method according to the National Committee for Clinical Laboratory (NCCLS) recommendations (Turnidge and Bordash [2007]). Twofold dilutions of the derivatives in tubes containing 4 ml of Mueller-Hinton broth (MH, Sigma, Germany) were made to concentrations from 200 to 0.39 μM. Overnight cultures of the bacteria were adjusted to the 0.5 McFarland standards and inoculated 1:200 into the MH broth and then incubated at 37 °C for 16–20 h. The lowest concentration inhibiting visible growth of the bacteria was recorded as minimal inhibitory concentration (MIC).
In general terms: Dilution methods test growth across graded concentrations, often in twofold steps.

For a further series, the target named is T1, recombinant YycG′ (Staphylococcus epidermidis, UniProt Q5HK19).
T1 construct: made in house; host or cells: E. coli BL21 (DE3)
T1 sequence (Q5HK19 370-610): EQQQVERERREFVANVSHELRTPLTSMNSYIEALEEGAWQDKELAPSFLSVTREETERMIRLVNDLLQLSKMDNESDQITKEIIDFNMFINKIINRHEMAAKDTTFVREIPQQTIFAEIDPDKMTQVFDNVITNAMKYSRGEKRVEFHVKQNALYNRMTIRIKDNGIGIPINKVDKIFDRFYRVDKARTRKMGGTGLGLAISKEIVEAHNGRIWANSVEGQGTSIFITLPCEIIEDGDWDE
Description: Inhibition of YycG′ autophosphorylation (Kinase-Glo Luminescent Kinase Assay). Type of series: biochemical, S. epidermidis. Particulars: for IC50: autophosphorylation of recombinant YycG′, Kinase-Glo; for inhibition of enzymatic autophosphorylation of YycG′: 100 μM derivative, YycG′ 0.13 μM. How it is done: Recombinant YycG (YycG′, amino acids 370–610) was prepared by expressing the HATPase_c and HisKA domains of YycG in E. coli BL21 (DE3). In brief, the sequence coding for YycG′ was amplified from the genome of S. epidermidis ATCC 35984 by PCR and cloned into the pET28a (+) vector, which inserts a GB1 tag (B1 domain of protein G, 56 residues) to make the recombinant fusion protein highly soluble and stable. The recombinant YycG′ protein was fused to the GB1 tag at its N-terminus end, expressed in E. coli BL21 (DE3) and purified by Ni^2+ affinity chromatography on a Ni-NTA column (Qiagen, Germany). The purified YycG′ was cleaved by TEV protease and further purified by Ni-NTA and Superdex 75 gel filtration columns (GE Healthcare, USA).
The Kinase-Glo™ Luminescent Kinase Assay (Promega, Madison, WI, USA) was used to measure the inhibitory activities of the derivatives against the autophosphorylation activity of the recombinant YycG′ following the manufacturer’s recommendation. The derivatives were serially diluted from 200 to 1.6 μM with reaction buffer (40 mM Tris pH 8.0, 20 mM MgCl2, and 0.1 mg/ml BSA). Recombinant YycG′ (0.02 μg/μl) and diluted derivative were added into a 96-well plate and incubated at 25 °C for 30 min, and then 4 μM ATP was added into each well and incubated for another 30 min. Finally, 50 μl Kinase-Glo™ Reagent containing luciferase (kinase) and D-luciferin was added. The luminescent signal generated by luciferase was in proportion to the amount of ATP remaining in the reaction. Luminescence was detected by a Perkin Elmer Victor X5 luminescence plate reader, and the intensity was recorded as relative light units (RLU). The wells containing ATP and Kinase-Glo™ without YycG′ and derivatives or containing YycG′ plus ATP and Kinase-Glo™ without the derivatives were used as the controls. The percentage inhibition of protein phosphorylation (Rp) by the derivatives was calculated as follows: Rp=RLUYycG^’+derivative+ATP+Kinase-Glo^TM-RLUYycG^’+ATP+Kinase-Glo^TM/RLUATP+Kinase-Glo^TM-RLUYycG^’+ATP+Kinase-Glo^TM×100
The concentration of a derivative required to inhibit half of the autophosphorylation of recombinant YycG′ (half maximal inhibitory concentration, IC50) was calculated with Origin 8.0 software (Origin Lab, Northampton, USA). Three independent assays were carried out, and each was performed in quadruplicate.
In general terms: Kinase-Glo reads ATP consumption through a luciferase reaction.

The test system of another series is Clinical MRSA strains. The series is described as follows: MIC, broth dilution. Conditions: Staphylococcus aureus; Clinical MRSA strains (n = 5). Type of series: cell-based, S. aureus. How it is done:
as §1, §2

Series [1] concerns S. epidermidis ATCC 35984 biofilms. The series is described as follows: Microtiter plate assay of S. epidermidis biofilms (crystal violet, MBEC). The series is classed as cell-based. Particulars: 6-h-old (immature) biofilms. How it is done: The effects of the derivatives on immature (6-h-old) biofilms and mature (24-h-old) biofilms of S. epidermidis ATCC 35984 were detected by using a semiquantitative microtiter plate assay (Stepanovic et al. [2007]). An overnight culture of bacteria was inoculated 1:200 into TSB medium containing 0.25 % glucose and statically incubated in a polystyrene 96-well plate (200 μl per well) at 37 °C for 6 or 24 h. The medium containing any nonadherent bacteria was then removed, and serial dilutions of derivatives in 200 μl fresh TSB were added to the wells and incubated for another 16 h at 37 °C. The wells were then washed gently three times with phosphate buffered saline (PBS), air-dried, fixed with methanol, and stained with 2 % (w/v) crystal violet. The staining was visually assessed and scanned at 570 nm using a 96-well plate spectrophotometer (DTX880, Beckman Coulter, USA), and the minimal biofilm eradication concentration (MBEC) was measured (Ceri et al. [1999]).

Another series in a line: Hemolytic activity. Particulars: healthy human erythrocytes, 5 % (v/v) suspension; for hemolysis at 1 h: at MIC. The series is classed as cell-based. How it is done:
The hemolytic activities of the derivatives on healthy human erythrocytes were also determined. Healthy human erythrocytes resuspended in normal saline (NS) at 5 % (v/v) were co-incubated with the derivatives at final concentrations of MIC, 4 × MIC, or 200 μM for 1 h at 37 °C in 96-well microtiter plates. The suspensions were centrifuged at 350 g for 10 min and the supernatant (100 μl) was transferred to new wells and measured at 570 nm on a spectrophotometer (Benchmark Microplate Reader; Bio-Rad, Hercules, CA, USA). The percentage of hemolysis was calculated by normalizing against the absorbance of erythrocytes treated with 1 % Triton X-100, which caused complete hemolysis; 0.1 % DMSO-treated cells were used as a control (Miyoshi et al. [1997]). The experiment was performed in quadruplicate wells and repeated independently three times.

As for `CCc1ccccc1/N=C1\S/C(=C\c2ccc(OCC(=O)O)c(OC)c2)C(=O)N1c1ccccc1CC` [Compound 2, {2-{4-{3-(2-ethylphenyl)-2-[(2-ethylphenyl)imino]-4-oxothiazolidin-5-ylidene}methyl}-2-methoxyphenoxy}acetic acid], the MIC against Clinical MRSE strains lay within 25 to 50 µM (≈ 12.9 to 25.8 µg/mL). The IC50 at recombinant YycG′ turned out to be 47.9 ± 5.3 µM. The compound also showed an MIC with Clinical MRSA strains of 25 to 50 µM (≈ 12.9 to 25.8 µg/mL). Also, in series [1], the MBEC amounted to 100.0 µM. Further, in “Hemolytic activity”, the hemolysis at 1 h, 200 µM is 5.24 ± 0.21% and the hemolysis at 1 h came out at 2.31 ± 0.35%.

As to `O=C(O)c1cccc(-c2ccc(C=C3SC(=Nc4ccc(Cl)cc4)N(c4ccc(Cl)cc4)C3=O)o2)c1` [H2-38, 3-{5-{{3-(4-chlorophenyl)-2-[(4-chlorophenyl)imino]-4-oxothiazolidin-5-ylidene}methyl}furan-2-yl}benzoic acid], the minimal inhibitory concentration (MIC) in the series with Clinical MRSE strains was in the range of 1.5 to 3.1 µM (≈ 0.803 to 1.66 µg/mL). In addition, on recombinant YycG′, the “inhibition of enzymatic autophosphorylation of YycG′” value (“inhibition” below) came to 61.8% and the IC50 stood at 41.4 ± 3.4 µM. The MIC in the series on Clinical MRSA strains was 1.5 to 3.1 µM (≈ 0.803 to 1.66 µg/mL). The compound also returned an MBEC in series [1] of 12.5 µM. In the series “Hemolytic activity”, this compound displayed a hemolysis at 1 h, 200 µM of 0.28 ± 0.03% and a hemolysis at 1 h of 0.14 ± 0.03%.

In the series on Clinical MRSE strains, `O=C(O)c1ccc(-c2ccc(C=C3SC(=Nc4ccc(Cl)cc4)N(c4ccc(Cl)cc4)C3=O)o2)cc1` [H2-39, 4-{5-{{3-(4-chlorophenyl)-2-[(4-chlorophenyl)imino]-4-oxothiazolidin-5-ylidene}methyl}furan-2-yl}benzoic acid] showed a minimum inhibitory concentration (MIC) of 1.5 to 3.1 µM (≈ 0.803 to 1.66 µg/mL). Besides, at recombinant YycG′, the “inhibition” value is 56.3% and the IC50 was 59.8 ± 1.4 µM. In the series with Clinical MRSA strains, this compound returned an MIC of 1.5 to 3.1 µM (≈ 0.803 to 1.66 µg/mL). The compound also displayed an MBEC in series [1] of 12.5 µM. In addition, in “Hemolytic activity”, the hemolysis at 1 h, 200 µM amounted to 0.41 ± 0.05% and the hemolysis at 1 h stood at 0.12 ± 0.03%.

In the series on Clinical MRSE strains, `O=C(O)c1ccc(-c2ccc(/C=C3\S/C(=N\c4ccccc4)N(c4ccc(Cl)cc4)C3=O)o2)cc1` [H2-57, 4-{5-{{3-(4-chlorophenyl)-2-[(4-phenyl)imino]-4-oxothiazolidin-5-ylidene}methyl}furan-2-yl}benzoic acid] displayed a minimum inhibitory concentration (MIC) of 1.5 to 3.1 µM (≈ 0.751 to 1.55 µg/mL). For the same compound, on recombinant YycG′, the “inhibition” value turned out to be 59.7% and the IC50 is 47.1 ± 1.5 µM. In addition, the minimal inhibitory concentration (MIC) against Clinical MRSA strains was in the range of 1.5 to 3.1 µM (≈ 0.751 to 1.55 µg/mL). In series [1], this compound displayed an MBEC of 12.5 µM. In “Hemolytic activity”, this compound displayed a hemolysis at 1 h, 200 µM of 0.16 ± 0.04% and a hemolysis at 1 h of 0.14 ± 0.03%.

As to `O=C(O)c1ccc(-c2ccc(C=C3SC(=Nc4ccc(F)cc4)N(c4ccc(F)cc4)C3=O)s2)cc1` [H2-60, 4-{5-{{3-(4-fluorophenyl)-2-[(4-fluorophenyl)imino]-4-oxothiazolidin-5-ylidene}methyl}thiophene-2-yl}benzoic acid], in the series with Clinical MRSE strains, the minimal inhibitory concentration (MIC) lay in the range of 1.5 to 3.1 µM (≈ 0.778 to 1.61 µg/mL). At recombinant YycG′, the “inhibition” value was 55.4% and the IC50 amounted to 63.7 ± 2.3 µM. This compound displayed a minimum inhibitory concentration (MIC) against Clinical MRSA strains of 1.5 to 3.1 µM (≈ 0.778 to 1.61 µg/mL). This compound also showed an MBEC in series [1] of 12.5 µM. In the series “Hemolytic activity”, this compound displayed a hemolysis at 1 h, 200 µM of 0.84 ± 0.03% and a hemolysis at 1 h of 0.52 ± 0.06%.

`O=C(O)COc1ccc(C=C2SC(=Nc3ccc(Cl)cc3)N(c3ccc(Cl)cc3)C2=O)cc1` [H2-74, 2-{4-{[3-(4-chlorophenyl)-2-[(4-chlorophenyl)imino]-4-oxothiazolidin-5-ylidene}methyl}phenoxy}acetic acid]: in the series on Clinical MRSE strains, the minimum inhibitory concentration (MIC) lay within 3.1 to 6.3 µM (≈ 1.55 to 3.15 µg/mL). At recombinant YycG′, the “inhibition” value worked out at 53.9% and the half-maximal inhibitory concentration (IC50) worked out at 71.2 ± 4.9 µM. In addition, the minimal inhibitory concentration (MIC) in the series on Clinical MRSA strains was 3.1 to 6.3 µM (≈ 1.55 to 3.15 µg/mL). In addition, in series [1], the MBEC worked out at 50.0 µM. Further, in “Hemolytic activity”, the hemolysis at 1 h, 200 µM came out at 0.42 ± 0.03% and the hemolysis at 1 h worked out at 0.14 ± 0.03%.

Turning to `O=C(O)c1ccc(-c2ccc(/C=C3\S/C(=N\c4ccccc4)N(c4ccc(F)cc4)C3=O)s2)cc1` [H2-81, 4-{5-{{3-(4-fluorophenyl)-2-[(4-phenyl)imino]-4-oxothiazolidin-5-ylidene}methyl}thiophene-2-yl}benzoic acid], the MIC against Clinical MRSE strains was found to be 1.5 µM (≈ 0.751 µg/mL). Moreover, on recombinant YycG′, the “inhibition” value came out at 79.2% and the 50% inhibitory concentration (IC50) is 24.2 ± 1.2 µM. Besides, the MIC against Clinical MRSA strains came out at 1.5 µM (≈ 0.751 µg/mL). The compound also showed an MBEC in series [1] of 6.3 µM. In “Hemolytic activity”, the hemolysis at 1 h, 200 µM was 0.1 ± 0.03% and the hemolysis at 1 h amounted to 0.06 ± 0.09%.

As a reminder, the MIC is the lowest concentration that inhibits growth of the organism. For orientation: IC50 means the point on the concentration scale where inhibition reaches its midpoint.
